pIC50: −log10 of the molar value.
Molecular target: T1, HPK1 kinase (aa1-346, Life Technologies) (Homo sapiens, UniProt Q92918)
T1 construct: HPK1 kinase (aa1-346, Life Technologies); purchased Life Technologies
T1 sequence (Q92918 1-346): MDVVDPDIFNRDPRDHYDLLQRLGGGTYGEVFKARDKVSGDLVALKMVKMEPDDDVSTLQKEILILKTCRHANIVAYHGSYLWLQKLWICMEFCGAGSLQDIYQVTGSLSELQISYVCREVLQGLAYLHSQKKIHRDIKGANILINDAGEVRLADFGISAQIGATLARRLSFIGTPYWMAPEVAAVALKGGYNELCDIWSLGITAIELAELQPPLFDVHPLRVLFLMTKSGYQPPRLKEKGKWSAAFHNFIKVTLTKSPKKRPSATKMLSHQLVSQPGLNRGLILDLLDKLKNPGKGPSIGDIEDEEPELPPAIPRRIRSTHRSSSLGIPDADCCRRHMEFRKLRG
Test: HPK1 Kinase Activity Assay at 1 mM ATP (TR-FRET)
Format: biochemical
Conditions: HPK1 40 nM, read-out: Enzymatic activity IC50
Description: HPK1 Kinase Activity Assay at 1 mM ATP
Compounds disclosed herein were tested for inhibition of HPK1 kinase (aa1-346, Life Technologies) activity in assays based on the time-resolved fluorescence-resonance energy transfer (TR-FRET) methodology. The assays were carried out in 384-well low volume black plates in a reaction mixture containing HPK1 kinase (40 nM), 1 mM ATP, 0.5 μM STK1 substrate and 0-10 μM compound in buffer containing 50 mM HEPES, 0.01% BSA, 0.1 mM Orthovanadate, 10 mM MgCl2, 1 mM DTT, pH=7.0, 0.005% Tween-20. The kinase was incubated with the compounds disclosed herein or DMSO for 60 minutes at room temperature and the reaction was initiated by the addition of ATP and STK1 substrate. After reaction at room temperature for 120 minutes, an equal volume of stop/detection solution was added according to the manufacturer's instruction (CisBio). The stop/detection solution contained STK Antibody-Cryptate and XL665-conjugated streptavidin in Detection Buffer. The TR-FRET signals (ratio of fluorescence emission at 665 nm over emission at 620 nm with excitation at 337 nm wavelength) were recorded on a PHERAstar FS plate reader (BMG Labtech). Phosphorylation of STK1 substrate led to the binding of STK Antibody-Cryptate to the biotinylated STK1 substrate, which places fluorescent donor (Eu^3+ cryptate) in close proximity to the accepter (Streptavidin-XL665), thus resulting in a high degree of fluorescence resonance energy transfer. The inhibition of HPK1 in presence of increasing concentrations of compounds was calculated based on the ratio of fluorescence at 665 nm to that at 620 nm. The IC50 for each compound was derived from fitting the data to the four-parameter logistic equation by Graphpad Prism software.

SMILES | pIC50
Cc1cc(-c2c[nH]c3ncc(-c4cc(C)c5c(c4)CN(CCC(=O)NC[C@H](C)O)CC5)nc23)ccc1C(=O)N(C)C [Example 30, (S)-4-(2-(2-(3-(2-hydroxypropylamino)-3-oxopropyl)-5-methyl-1,2,3,4-tetrahydroisoquinolin-7-yl)-5H-pyrrolo[2,3-b]pyrazin-7-yl)-N, N, 2-trimethylbenzamide] | 7.20
Cc1cc(-c2c[nH]c3ncc(-c4cc(C)c5c(c4)CN(CCC(=O)NC4(CO)CC4)CC5)nc23)ccc1C(=O)N(C)C [Example 31, 4-(2-(2-(3-(1-(hydroxymethyl)cyclopropylamino)-3-oxopropyl)-5-methyl-1,2,3,4-tetrahydroisoquinolin-7-yl)-5H-pyrrolo[2,3-b]pyrazin-7-yl)-N, N, 2-trimethylbenzamide] | 7.28
Cc1cc(-c2c[nH]c3ncc(-c4cc(C)c5c(c4)CN(CCC(=O)NCC4(O)CC4)CC5)nc23)ccc1C(=O)N(C)C [Example 32, 4-(2-(2-(3-((1-hydroxycyclopropyl)methylamino)-3-oxopropyl)-5-methyl-1,2,3,4-tetrahydroisoquinolin-7-yl)-5H-pyrrolo[2,3-b]pyrazin-7-yl)-N, N, 2-trimethylbenzamide] | 7.15
Cc1cc(-c2c[nH]c3ncc(-c4cc(C)c5c(c4)CN(CCC(=O)NCC(C)(C)O)CC5)nc23)ccc1C(=O)N(C)C [Example 33, 4-(2-(2-(3-(2-hydroxy-2-methylpropylamino)-3-oxopropyl)-5-methyl-1,2,3,4-tetrahydroisoquinolin-7-yl)-5H-pyrrolo[2,3-b]pyrazin-7-yl)-N, N, 2-trimethylbenzamide] | 7.31
Cc1cc(-c2c[nH]c3ncc(-c4cc(C)c5c(c4)CN(CCC(=O)N[C@@H]4CCOC4)CC5)nc23)ccc1C(=O)N(C)C [Example 34, (R)—N, N, 2-trimethyl-4-(2-(5-methyl-2-(3-oxo-3-(tetrahydrofuran-3-ylamino)propyl)-1,2,3,4-tetrahydroisoquinolin-7-yl)-5H-pyrrolo[2,3-b]pyrazin-7-yl)benzamide] | 7.38
Cc1cc(-c2cnc3[nH]cc(-c4ccc(C(=O)N(C)C[C@@H]5CCOC5)cc4)c3n2)cc2c1CCN(C)C2 [Example 35, (S)-4-(2-(2,5-dimethyl-1,2,3,4-tetrahydroisoquinolin-7-yl)-5H-pyrrolo[2,3-b]pyrazin-7-yl)-N-methyl-N-((tetrahydrofuran-3-yl)methyl)benzamide] | 7.72
Cc1cc(-c2cnc3[nH]cc(-c4ccc(C(=O)N(C)C[C@@H]5CCOC5)cc4)c3n2)cc2c1CCN(CCN1CCC(C)(O)CC1)C2 [Example 36, (S)-4-(2-(2-(2-(4-hydroxy-4-methylpiperidin-1-yl)ethyl)-5-methyl-1,2,3,4-tetrahydroisoquinolin-7-yl)-5H-pyrrolo[2,3-b]pyrazin-7-yl)-N-methyl-N-((tetrahydrofuran-3-yl)methyl)benzamide] | 7.41
Cc1cc(-c2cnc3[nH]cc(-c4ccc(C(=O)N(C)C)cc4)c3n2)cc2c1CCN(CCN1CCC(C)(O)CC1)C2 [Example 37, 4-(2-(2-(2-(4-hydroxy-4-methylpiperidin-1-yl)ethyl)-5-methyl-1,2,3,4-tetrahydroisoquinolin-7-yl)-5H-pyrrolo[2,3-b]pyrazin-7-yl)-N, N-dimethylbenzamide] | 7.46
Cc1cc(-c2c[nH]c3ncc(-c4cc(C)c5c(c4)CN(C)CC5)nc23)ccc1C(=O)N(C)CC(C)(C)O [Example 39, 4-(2-(2,5-dimethyl-1,2,3,4-tetrahydroisoquinolin-7-yl)-5H-pyrrolo[2,3-b]pyrazin-7-yl)-N-(2-hydroxy-2-methylpropyl)-N, 2-dimethylbenzamide] | 6.73
COCCCN(C)C(=O)c1ccc(-c2c[nH]c3ncc(-c4cc(C)c5c(c4)CN(C)CC5)nc23)cc1 [Example 40, 4-(2-(2,5-dimethyl-1,2,3,4-tetrahydroisoquinolin-7-yl)-5H-pyrrolo[2,3-b]pyrazin-7-yl)-N-(3-methoxypropyl)-N-methylbenzamide] | 7.77
Cc1cc(-c2c[nH]c3ncc(-c4cc(C)c5c(c4)CN(CCC(=O)N[C@H]4CC[C@@H](O)CC4)CC5)nc23)ccc1C(=O)N(C)C [Example 41, 4-(2-(2-(3-((cis-4-hydroxycyclohexyl)amino)-3-oxopropyl)-5-methyl-1,2,3,4-tetrahydroisoquinolin-7-yl)-5H-pyrrolo[2,3-b]pyrazin-7-yl)-N, N, 2-trimethylbenzamide] | 7.27
Cc1cc(-c2c[nH]c3ncc(-c4cc(C)c5c(c4)CN(CCC(=O)NCCN4CCN(C)CC4)CC5)nc23)ccc1C(=O)N(C)C [Example 42, N, N, 2-trimethyl-4-(2-(5-methyl-2-(3-((2-(4-methylpiperazin-1-yl)ethyl)amino)-3-oxopropyl)-1,2,3,4-tetrahydroisoquinolin-7-yl)-5H-pyrrolo[2,3-b]pyrazin-7-yl)benzamide] | 7.07
Cc1cc(-c2c[nH]c3ncc(-c4cc(C)c5c(c4)CN(CCC(=O)NC4CC4)CC5)nc23)ccc1C(=O)N(C)C [Example 43, 4-(2-(2-(3-(cyclopropylamino)-3-oxopropyl)-5-methyl-1,2,3,4-tetrahydroisoquinolin-7-yl)-5H-pyrrolo[2,3-b]pyrazin-7-yl)-N, N, 2-trimethylbenzamide] | 7.43
COCCCNC(=O)CCN1CCc2c(C)cc(-c3cnc4[nH]cc(-c5ccc(C(=O)N(C)C)c(C)c5)c4n3)cc2C1 [Example 44, 4-(2-(2-(3-((3-methoxypropyl)amino)-3-oxopropyl)-5-methyl-1,2,3,4-tetrahydroisoquinolin-7-yl)-5H-pyrrolo[2,3-b]pyrazin-7-yl)-N, N, 2-trimethylbenzamide] | 7.09
Cc1cc(-c2c[nH]c3ncc(-c4cc(C)c5c(c4)CN(CCC(=O)NCCO)CC5)nc23)ccc1C(=O)N(C)C [Example 45, 4-(2-(2-(3-((2-hydroxyethyl)amino)-3-oxopropyl)-5-methyl-1,2,3,4-tetrahydroisoquinolin-7-yl)-5H-pyrrolo[2,3-b]pyrazin-7-yl)-N, N, 2-trimethylbenzamide] | 7.28
Cc1cc(-c2c[nH]c3ncc(-c4cc(C)c5c(c4)CN(CCC(=O)NCCCO)CC5)nc23)ccc1C(=O)N(C)C [Example 46, 4-(2-(2-(3-((3-hydroxypropyl)amino)-3-oxopropyl)-5-methyl-1,2,3,4-tetrahydroisoquinolin-7-yl)-5H-pyrrolo[2,3-b]pyrazin-7-yl)-N, N, 2-trimethylbenzamide] | 7.19
Cc1cc(-c2cnc3[nH]cc(-c4ccc(C(=O)N(C)C)cc4)c3n2)cc2c1CCN(CCC(=O)NC1CC1)C2 [Example 47, 4-(2-(2-(3-(cyclopropylamino)-3-oxopropyl)-5-methyl-1,2,3,4-tetrahydroisoquinolin-7-yl)-5H-pyrrolo[2,3-b]pyrazin-7-yl)-N, N-dimethylbenzamide] | 7.66
Cc1cc(-c2cnc3[nH]cc(-c4ccc(C(=O)N(C)C)cc4)c3n2)cc2c1CCN(CCC(=O)N[C@H]1CC[C@H](O)CC1)C2 [Example 48, 4-(2-(2-(3-(((1r, 4r)-4-hydroxycyclohexyl)amino)-3-oxopropyl)-5-methyl-1,2,3,4-tetrahydroisoquinolin-7-yl)-5H-pyrrolo[2,3-b]pyrazin-7-yl)-N, N-dimethylbenzamide] | 7.19
Cc1cc(-c2cnc3[nH]cc(-c4ccc(C(=O)N(C)C)cc4)c3n2)cc2c1CCN(CCC(=O)NCCN1CCN(C)CC1)C2 [Example 49, N, N-dimethyl-4-(2-(5-methyl-2-(3-((2-(4-methylpiperazin-1-yl)ethyl)amino)-3-oxopropyl)-1,2,3,4-tetrahydroisoquinolin-7-yl)-5H-pyrrolo[2,3-b]pyrazin-7-yl)benzamide] | 7.17
Cc1cc(-c2c[nH]c3ncc(-c4cc(C)c5c(c4)CN(CCN4CCOCC4)CC5)nc23)ccc1C(=O)N(C)C[C@@H]1CCOC1 [Example 50, (S)—N, 2-dimethyl-4-(2-(5-methyl-2-(2-morpholinoethyl)-1,2,3,4-tetrahydroisoquinolin-7-yl)-5H-pyrrolo[2,3-b]pyrazin-7-yl)-N-((tetrahydrofuran-3-yl)methyl)benzamide] | 6.86
Cc1cc(-c2cnc3[nH]cc(-c4ccc(C(=O)N(C)C[C@@H]5CCOC5)cc4)c3n2)cc2c1CCN(CCN1CCOCC1)C2 [Example 51, (S)—N-methyl-4-(2-(5-methyl-2-(2-morpholinoethyl)-1,2,3,4-tetrahydroisoquinolin-7-yl)-5H-pyrrolo[2,3-b]pyrazin-7-yl)-N-((tetrahydrofuran-3-yl)methyl)benzamide] | 7.44

From US12454534B2, “Pyrrolo[2,3-b]pyrazines as HPK1 inhibitor and the use thereof” (BEIGENE, LTD., priority 2019, dated 2025)
